Measurements from patent publication US20260027073A1, “USE OF SMALL-MOLECULE COMPOUND HAVING NAPHTHYLAMINE STRUCTURE” (HANGZHOU PHECDAMED CO., LTD., priority 2023, published 2026).
“And” between values parts separate entries of the source, which are not always exact repeats. Equal values may be shown once.

How the values were obtained:
[1] = system: mice with renal ischemia-reperfusion; assay: Unilateral renal ischemia-reperfusion acute kidney injury; type: in vivo, C57BL/6 mice
Procedure: 8-week-old C57BL/6 mice (weighing about 20-25 g) were injected intraperitoneally with 50 mg/kg sodium pentobarbital. After the mice were anesthetized, carried out preserved skin and placed on a thermostatic table, the skin and muscle of the right side were incised from the back and the right kidney was exposed, and the tissue around the pedicle of the kidney was stripped off with forceps to expose the blood vessels and the ureter. The arterial and venous blood vessels and the ureter were ligated with sutures. After removing the kidney, the muscle and skin were sutured with sutures and placed at 37° C. to wake it up, and after waking up, the mice were given […] of I-1. The experiments were divided into a sham group (exposing the right side of the kidney without removing it), a control group (giving solvent treatment by oral gavage), a 10 mg/kg group (10 mg/kg I-1 by oral gavage) and a 30 mg/kg group (30 mg/kg I-1 by oral gavage), with being administered once a day, and left kidney ischemia-reperfusion was performed on the sixth day, the specific plan was: mice were injected intraperitoneally with 50 mg/kg sodium pentobarbital, after anesthetizing, carried out preserved skin and placed on a thermostatic table, the skin and muscle of the left side were cut from the back and the left kidney was exposed, and the tissue around the pedicle of the kidney was stripped off with forceps to expose the blood vessels, and the arterial clip were used to tighten the blood vessel, after ischemia for 45 min, the arterial clip were released and the kidney tissue was returned to its place with a cotton swab, and finally the muscle and skin were sutured with a suture lines and the mice were placed at 37° C. to wake it up, and given another drug treatment after waking up. Blood was taken from the eyeball after 24 h of reperfusion, and the blood was centrifuged at 12000 g for 10 min at 4° C. after standing at room temperature for 45 min, and the supernatant (serum) was taken to detect the level of creatinine and urea nitrogen in the serum with a biochemical analyzer.
After blood extraction from the mouse eyeballs, cardiac perfusion was performed with PBS, after mice were anesthetized and fixed on a foam plate with a needle, the skin and ribs of the chest and abdomen were cut open to expose the heart, the injection needle was inserted into the left ventricle of mice and the pericardium was cut open at the same time, and the perfusion was performed with PBS at a speed of 7 rpm until the liver turned white and then the perfusion was stopped, the kidneys were taken out, and the renal peritoneum was removed, and the kidneys were put into 4% paraformaldehyde and fixed and immersed for 72 h. Subsequently, tissue embedding was carried out. Then tissue embedding, sectioning and HE staining were performed as follows:
Tissue was dewaxed after embedding and sectioning, and performed antigen repair, 5% goat serum sealing solution was added dropwise at 37° C. for 40 min, 50 μl of KIM-1 and caspase3 primary antibody (1:500) was added dropwise, overnight at 4° C.; after rewarming at 37° C. for 30 min, the tissue was washed by PBS four times, each time for 5 min. And then fluorescence secondary antibody was added dropwise for Ih, and the tissue was washed by PBS four times, each time for 5 min, finally, the tissue was stained by DAPI for 10 min, sealed with nail polish, and images were collected by cytation 3.

[2] = system: rats of type I diabetes nephropathy model; assay: Kidney injury induced by type 1 diabetic nephropathy (STZ); type: in vivo, SD rats
Procedure: 150-170 g SD male rats were fasted but not deprived of water for 12 h before surgery, and a longitudinal incision was made at the intersection of the lower edge of the right rib arch, which was about 1 cm long. Then the three layers of skin, mucous membrane, and muscle were separated layer by layer to expose the perinephric fat, and the perinephric fat was clamped by hemostatic forceps and lifted upward to expose the right kidney, and the right kidney pedicle was ligated and the right kidney was resected, and after no hemorrhage was checked, the tissues were sutured layer by layer. One week after surgery, 1% streptozotocin (STZ) 50 mg/kg was injected intraperitoneally in a volume of […]. Rats in the sham group only had the abdominal cavity opened, the right renal adipose capsule was peeled off, and the right kidney was not resected; the abdominal cavity was closed, the incision was sutured and an equal volume of citrate solution was injected into the tail vein one week later.
Random blood glucose was measured 72 h after STZ injection, and blood glucose ≥16.65 mmol/L was considered as successful diabetes modeling. The successful modeling rats were selected to continue to be fed with normal chow and free water. […] The experiment was divided into sham group (sham group, without STZ modeling and given vehicle by oral gavage), Control group (model control group, STZ modeling and given vehicle treatment by oral gavage), and 15 mg/kg I-1 group (STZ modeling and given 15 mg/kg I-1 by oral gavage), and the dosage of the drug was administered once a day in the volume of 10 ml/kg for 27 days. […] At the end point of the experiment, the rats were euthanized, the kidneys were removed after dissection, and four kidneys were taken to be fixed with 4% paraformaldehyde for 48 h, paraffin-embedded, sectioned and HE stained, and the specific staining procedure was as described above.

[3] = system: autoimmune myocarditis model rats; assay: Autoimmune myocarditis model; type: in vivo, Lewis rats; conditions: for left ventricular end-diastolic transverse diameter LVIDd / left ventricular end-systolic transverse diameter LVIDs / ejection fraction EF / short-axis fractional shortening FS / serum CK-MB level: 30 mg/kg oral gavage, 4 weeks; for left ventricular end-diastolic transverse diameter LVIDd / left ventricular end-systolic transverse diameter LVIDs: FIG. 79; for ejection fraction EF / short-axis fractional shortening FS: FIG. 80; for serum CK-MB level: FIG. 81
Procedure: 8-week-old male SPF-grade Lewis rats were adaptively fed for one week to construct an autoimmune myocarditis model. The rats were divided into two groups, normal control group (normal rats, routine feeding) and model group, in which porcine cardiac myosin used to induce autoimmunity and Freund's adjuvant were fully mixed in 1:1 in the model group (purified porcine cardiac myosin was dissolved in PBS solution, with its concentration being controlled to 10 g/L, under sterile conditions the solution was mixed with the complete Freund's adjuvant CFA in 1:1 equal volume and emulsified completely, so that it became a homogeneous emulsion), a total of 0.2 ml of the immunization mixture was injected subcutaneously into multiple points such as the bilateral groin and axilla of the rats. Normal control rats were immunized with myosin-free PBS and CFA emulsion. From the 14th day after immunization, the model groups were administrated in groups, and were divided into three groups: model group (model, treated with 0.5% CMC-Na by oral gavage, n=8) TJ01-013 treatment group (TJ01-013, 30 mg/kg TJ01-013 by oral gavage, n=8), I-14-1 treatment group (I-14-1, 30 mg/kg I-14-1 by oral gavage, n=8). A normal control group (Control, treated with 0.5% CMC-Na by oral gavage, n=8) was further provided, and the administration of the drug was started immediately after grouping, and the drug was administered for a total of 4 weeks. At the end of the administration, rats were weighed, anesthetized and blood was taken, and serum was extracted and the corresponding physiological indexes were detected. After euthanasia, the rats' hearts were stripped and weighed, and the organ coefficients of the hearts were calculated.
After the end of administration, rats were weighed, anesthetized with 10% chloral hydrate via intraperitoneal injection, and then subjected to echocardiography in the supine and slightly left lateral position after chest hair removal, and the average value was taken from 3 repetitions. The detection indexes include left ventricular end-diastolic transverse diameter LVIDd, left ventricular end-systolic transverse diameter LVIDs, short-axis fractional shortening FS, and ejection fraction EF.

[4] = reperfusion 24 h, oral gavage 10 mg/kg and 30 mg/kg, FIG. 1

Question: Which “damage to renal tissues (HE staining)” value ([1]; FIG. 2) does the source give for O=C(O)C[S+]([O-])c1cc(NS(=O)(=O)c2ccc(Br)cc2)c2ccccc2c1O (stereo not shown) [I-1] here?
Answer: alleviated the damage to renal tissues

Question: What about the “KIM-1 level in renal tissue (immunostaining)” value ([1]; FIG. 3) of the same compound?
Answer: inhibited

Question: What about the “cleaved-caspase3 level in renal tissue (immunostaining)” value ([1]; FIG. 3) of the same compound?
Answer: inhibited

Question: And the serum creatinine level [1, 4]?
Answer: significantly reduced

Question: And the “serum urea nitrogen level” value [1, 4]?
Answer: significantly reduced

Question: What about the body weight ([2]; 15 mg/kg oral gavage, 27 days, FIG. 14) of the same compound?
Answer: trend of increasing body weight

Question: What about the blood glucose level ([2]; 15 mg/kg, 27 days, FIG. 16) of the same compound?
Answer: no significant effect

Question: What about the “24-h urine protein level” value ([2]; 15 mg/kg, 27 days, FIG. 17) of the same compound?
Answer: decrease in the 24-h urine protein level of rats, but there was no significant difference

Question: And the serum creatinine level ([2]; 15 mg/kg, 27 days, P<0.5 [sic], FIG. 15)?
Answer: significantly decreased

Question: What about the “degree of renal pathology (HE staining)” value ([2]; 15 mg/kg, 27 days, vs model group, FIG. 18) of the same compound?
Answer: significant reduction

Question: What about the “Renal lesion (number of kidneys, n = 4)” value ([2]; Degree of lesion + (mild lesions), 15 mg/kg) of the same compound?
Answer: 3/4 and 3

Question: And the “Renal lesion (number of kidneys, n = 4)” value ([2]; Degree of lesion ++ (moderate lesions), 15 mg/kg)?
Answer: 0

Question: What about the “Renal lesion (number of kidneys, n = 4)” value ([2]; Degree of lesion +++ (severe lesions), 15 mg/kg) of the same compound?
Answer: 1/4 and 1

Question: And the “Renal lesion (number of kidneys, n = 4)” value ([2]; Degree of lesion ± (slight lesions), 15 mg/kg)?
Answer: 0

Question: What about the “Renal lesion (number of kidneys, n = 4)” value ([2]; Degree of lesion − (no lesions), 15 mg/kg) of the same compound?
Answer: 0

Question: And the “left ventricular end-diastolic transverse diameter LVIDd” value [3]?
Answer: reduce

Question: And the “left ventricular end-systolic transverse diameter LVIDs” value [3]?
Answer: reduce

Question: What about the “ejection fraction EF” value [3] of the same compound?
Answer: increase

Question: And the “short-axis fractional shortening FS” value [3]?
Answer: increase

Question: What about the “serum CK-MB level” value [3] of the same compound?
Answer: decrease

Question: What about the “treatment of TJ01-013 compared with I-14-1” value ([3]; LVIDd/LVIDs, EF/FS, CK-MB) of the same compound?
Answer: significantly better

Question: Which results are given for O=C(O)C[S+]([O-])c1cc(NS(=O)(=O)c2ccc(C(F)(F)F)cc2)c2ccccc2c1O (stereo not shown) [I-14-1]?
Answer: left ventricular end-diastolic transverse diameter LVIDd [3]: reduce; left ventricular end-systolic transverse diameter LVIDs [3]: reduce; ejection fraction EF [3]: increase; short-axis fractional shortening FS [3]: increase; serum CK-MB level [3]: decrease

Question: How did the “treatment of renal ischemia-reperfusion injury compared with I-1” value ([1]; UMI-77 group vs I-1) turn out when O=C(O)CSc1cc(NS(=O)(=O)c2ccc(Br)cc2)c2ccccc2c1O [UMI-77, reference compound] was run?
Answer: less effective

Question: What about the “protection against kidney injury in type 1 diabetes compared with I-1 group” value ([2]; UMI-77 vs I-1) of the same compound?
Answer: less protective
